Measured values taken from ChEMBL document CHEMBL3997785, “Optimization of 2-Anilino 4-Amino Substituted Quinazolines into Potent Antimalarial Agents with Oral in Vivo Activity” (J Med Chem, 2017).
Values after ≈ are worked out from the molar mass of the structure shown. Active and inactive are the calls of the source. The calls are words filed in the database; no cut-off is given here.

How the values were obtained:
Plasmodium falciparum [1] = assay: Antimalarial activity against Plasmodium falciparum 3D7 asexual blood stage infected in human erythrocytes incubated for 72 hrs by LDH assay; format: functional, cell-based; conditions: 3D7, 72 h
Plasmodium falciparum [2] = assay: Antimalarial activity against Plasmodium falciparum NF54 harboring pfs16-LUC-GFP late stage 4 to 5 gametocytes after 48 hrs by MitoTracker Red staining based confocal microscopy; format: functional; conditions: NF54, 48 h
Plasmodium falciparum [3] = assay: Antimalarial activity against chloroquine and mefloquine resistant Plasmodium falciparum W2mef infected in human erythrocytes incubated for 72 hrs by LDH assay; format: functional, cell-based
Plasmodium falciparum [4] = assay: Antimalarial activity against Plasmodium falciparum NF54 harboring pfs16-LUC-GFP early stage 1 to 3 gametocytes after 48 hrs by MitoTracker Red staining based confocal microscopy; format: functional; conditions: NF54, 48 h
Plasmodium falciparum [5] = assay: Antimalarial activity against Plasmodium falciparum NF54 harboring pfs16-LUC-GFP ring stage gametocytes after 24 hrs by MitoTracker Red staining based confocal microscopy; format: functional; conditions: NF54, 24 h
Liver [6] = assay: Drug metabolism in mouse liver microsomes assessed as mono-oxygenation at 6th position of quinazoline at 1 uM after 60 mins in presence of NADPH by LC-MS method; format: ADME, microsome; conditions: 1 h
[7] = Ratio of EC50 for Plasmodium falciparum NF54-pfs16-LUC-GFP ring stage gametocytes to EC50 for Plasmodium falciparum 3D7 asexual blood stage infected in human erythrocytes; format: functional
Plasmodium falciparum [8] = assay: Antimalarial activity against Plasmodium falciparum 3D7 infected in human erythrocytes assessed as arrest at trophozoite stage of asexual life cycle leading to parasite death at 10 times EC50 up to 48 hrs by Giemsa-staining based assay relative to control; format: functional, cell-based
[9] = Hepatic extraction ratio in human liver microsomes at 1 uM in presence of NADPH by LC-MS method; format: ADME, microsome; conditions: read-out: ERH
Plasmodium berghei [10] = assay: Antimalarial activity against Plasmodium berghei ANKA infected Swiss black mouse model at 20 mg/kg administered via oral gavage for 4 days starting 4 hrs post infection by microscopic method; format: functional
[11] = Half life in human liver microsomes at 1 uM in presence of NADPH by LC-MS method; format: ADME, microsome
Plasmodium berghei [12] = assay: Antimalarial activity against Plasmodium berghei ANKA infected Swiss black mouse at 20 mg/kg, ip administered for 4 days starting 4 hrs post infection by microscopic method; format: functional
[13] = Aqueous solubility of the compound at pH 6.5 by nephelometry; format: physicochemical
Liver [14] = assay: Drug metabolism in human liver microsomes assessed as mono-oxygenation at 6th position of quinazoline at 1 uM after 60 mins in presence of NADPH by LC-MS method; format: ADME, microsome; conditions: 1 h
Plasmodium falciparum [15] = assay: Antimalarial activity against synchronous culture of Plasmodium falciparum 3D7 infected in human erythrocytes assessed as development arrest at ring stage of asexual life cycle leading to parasite death at 10 times EC50 up to 48 hrs by Giemsa-staining based assay relative to control; format: functional, cell-based
Liver [16] = assay: Drug metabolism in mouse liver microsomes assessed as N-demethylation of methyl piperidine or piperazine at 1 uM after 60 mins in presence of NADPH by LC-MS method; format: ADME, microsome; conditions: 1 h
Plasma [17] = assay: Drug uptake in Plasmodium berghei ANKA infected Swiss black mouse plasma at 20 mg/kg, ip measured after 20 hrs; format: ADME, organism-based; conditions: in vivo
Plasmodium falciparum [18] = assay: Antimalarial activity against synchronous culture of Plasmodium falciparum 3D7 ring stage parasite infected in human erythrocytes incubated for 3 hrs followed by compound wash out and measured after 24 hrs by NanoGlo-reagent based bioluminescence assay; format: functional, cell-based
[19] = Half life in mouse liver microsomes at 1 uM in presence of NADPH by LC-MS method; format: ADME, microsome
HepG2 = assay: Cytotoxicity against human HepG2 cells assessed as growth inhibition after 48 hrs by Cell Titer-Glo assay; format: cell-based; conditions: HepG2, 48 h
[20] = Selectivity index, ratio of EC50 for human HepG2 cells to EC50 for Plasmodium falciparum 3D7 asexual blood stage infected in human erythrocytes; format: toxicity, cell-based; conditions: read-out: Ratio EC50
Plasmodium falciparum [21] = assay: Antimalarial activity against synchronous culture of Plasmodium falciparum 3D7 ring stage parasite infected in human erythrocytes incubated for 6 hrs followed by compound wash out and measured after 24 hrs by NanoGlo-reagent based bioluminescence assay; format: functional, cell-based
[22] = Intrinsic clearance in mouse liver microsomes at 1 uM in presence of NADPH by LC-MS method; format: ADME, microsome; conditions: read-out: CLH
[23] = Intrinsic clearance in human liver microsomes at 1 uM in presence of NADPH by LC-MS method; format: ADME, microsome; conditions: read-out: CLH
[24] = Hepatic extraction ratio in mouse liver microsomes at 1 uM in presence of NADPH by LC-MS method; format: ADME, microsome; conditions: read-out: ERH
Plasma [25] = assay: Drug uptake in Plasmodium berghei ANKA infected Swiss black mouse plasma at 20 mg/kg, po via gavage measured after 20 hrs; format: ADME, organism-based; conditions: in vivo
Liver [26] = assay: Drug metabolism in human liver microsomes assessed as N-demethylation of methyl piperidine or piperazine at 1 uM after 60 mins in presence of NADPH by LC-MS method; format: ADME, microsome; conditions: 1 h
Plasmodium falciparum [27] = assay: Antimalarial activity against synchronous culture of Plasmodium falciparum 3D7 ring stage parasite infected in human erythrocytes incubated for 24 hrs followed by compound wash out and measured after 24 hrs by NanoGlo-reagent based bioluminescence assay; format: functional, cell-based; conditions: 3D7, 24 h
[28] = Ratio of EC50 for Plasmodium falciparum NF54-pfs16-LUC-GFP early stage gametocytes to EC50 for Plasmodium falciparum 3D7 asexual blood stage infected in human erythrocytes; format: functional
[29] = Aqueous solubility of the compound at pH 2 by nephelometry; format: physicochemical
Liver [30] = assay: Drug metabolism in mouse liver microsomes assessed as O-demethylation of 6 and 7 methoxy groups at 1 uM after 60 mins in presence of NADPH by LC-MS method; format: ADME, microsome; conditions: 1 h
Liver [31] = assay: Drug metabolism in human liver microsomes assessed as O-demethylation of 6 and 7 methoxy groups at 1 uM after 60 mins in presence of NADPH by LC-MS method; format: ADME, microsome; conditions: 1 h
Liver [32] = assay: Drug metabolism in human liver microsomes assessed as hydro defluorination at 1 uM after 60 mins in presence of NADPH by LC-MS method; format: ADME, microsome; conditions: 1 h
Liver [33] = assay: Drug metabolism in mouse liver microsomes assessed as hydro defluorination at 1 uM after 60 mins in presence of NADPH by LC-MS method; format: ADME, microsome; conditions: 1 h

Structure (SMILES)	EC50 (Plasmodium falciparum [1]) [nM]	EC50 (Plasmodium falciparum [2]) [nM]	EC50 (Plasmodium falciparum [3]) [nM]	EC50 (Plasmodium falciparum [4]) [nM]	EC50 (Plasmodium falciparum [5]) [nM]	Drug metabolism (Liver [6])	Ratio EC50 [7]	Activity (Plasmodium falciparum [8])	hepatic extraction ratio at 1 µM [9]	half-life at 1 µM [11] [h]	solubility kinetic [13] [µM]	Drug metabolism (Liver [14])	Activity (Plasmodium falciparum [15])	half-life at 1 µM [19] [h]	EC50 (HepG2) [nM]	selectivity ratio [20]	microsomal CLint at 1 µM [22] [µL/min/mg]	microsomal CLint at 1 µM [23] [µL/min/mg]	hepatic extraction ratio at 1 µM [24]	solubility kinetic [29] [µM]	other results
C[C@H]1[C@H](OC(=O)CCC(=O)O)O[C@@H]2O[C@@]3(C)CC[C@H]4[C@H](C)CC[C@@H]1[C@@]24OO3 [ARTESUNATE]	8	8	6	3	3	–	–	–	–	–	–	–	–	–	–	–	–	–	–	–	–
CN1CCN(CCNc2nc(Nc3ccc(Cl)c(F)c3)nc3ccccc23)CC1.Cl.Cl	27	4000	57	453	207	Metabolite_Detected	10	inactive	0.47	1.28	10.9 to 22	Metabolite_Detected	Active	0.783	7500	275	37	23	0.44	> 90	Activity (Plasmodium berghei [10]): >90%; Activity (Plasmodium berghei [12]): >98%; Drug metabolism (Liver [16]): Metabolite_Detected; Drug uptake (Plasma [17]): Active; EC50 (Plasmodium falciparum [18]): 3340 nM; Activity (Plasmodium falciparum [21]): Dose dependent effect; EC50 (Plasmodium falciparum [21]): 3120 nM; Drug uptake (Plasma [25]): Active; Drug metabolism (Liver [26]): Metabolite_Detected; EC50 (Plasmodium falciparum [27]): 637 nM; Ratio EC50 [28]: 15 - 25
C[C@@H]1CC[C@H]2[C@@H](C)C(=O)O[C@@H]3O[C@@]4(C)CC[C@@H]1[C@]32OO4 [ARTEMISININ]	–	–	–	–	–	–	–	–	–	–	–	–	–	–	–	–	–	–	–	–	EC50 (Plasmodium falciparum [21]): 5 nM; EC50 (Plasmodium falciparum [27]): 2 nM
COc1cc2nc(Nc3ccc(F)cc3)nc(NCC3CCCO3)c2cc1OC (stereo not drawn)	57	–	–	–	–	–	–	–	0.52	1.07	3.1 to 6.3 (≈ 1.24 to 2.51 µg/mL)	–	–	0.4	5500	96	72	27	0.61	25 to 50 (≈ 9.96 to 19.9 µg/mL)	Drug metabolism (Liver [30]): Metabolite_Detected; Drug metabolism (Liver [31]): Metabolite_Detected
CN1CCC(Nc2nc(Nc3ccc(F)c(Cl)c3)nc3ccccc23)CC1.Cl.Cl	35	3700	54	515	223	Metabolite_Detected	10	inactive	< 0.22	> 4.25	11.3 to 23	Metabolite_Detected	Active	2.48	5100	145	12	< 7	0.2	> 90	Activity (Plasmodium berghei [10]): Active; Drug metabolism (Liver [16]): Metabolite_Detected; Drug uptake (Plasma [17]): Active; Drug metabolism (Liver [32]): Metabolite_Detected; Drug metabolism (Liver [33]): Metabolite_Detected; Drug uptake (Plasma [25]): Active; Drug metabolism (Liver [26]): Metabolite_Detected; Ratio EC50 [28]: 15 - 25
CN1CCC(Nc2nc(Nc3ccc(Cl)c(F)c3)nc3ccccc23)CC1.Cl.Cl	28	2700	61	554	220	Metabolite_Detected	10	inactive	0.28	3.02	4.2 to 8.4	Metabolite_Detected	Active	3.2	5100	179	9	10	0.16	> 90	Drug metabolism (Liver [16]): Metabolite_Detected; Drug uptake (Plasma [17]): Active; Drug uptake (Plasma [25]): Active; Drug metabolism (Liver [26]): Metabolite_Detected; Ratio EC50 [28]: 15 - 25
COc1cc2nc(Nc3ccc(F)cc3)nc(NCc3ccccc3)c2cc1OC	41	–	–	–	–	–	–	–	< 0.22	> 4.12	1.6 to 3.1 (≈ 0.647 to 1.25 µg/mL)	–	–	0.817	2800	109	35	< 7	0.43	1.6 to 3.1 (≈ 0.647 to 1.25 µg/mL)	Drug metabolism (Liver [30]): Metabolite_Detected; Drug metabolism (Liver [31]): Metabolite_Detected
CCN(CC)CCCC(C)Nc1ccnc2cc(Cl)ccc12 (stereo not drawn) [CHLOROQUINE]	23	> 40000	–	–	20	–	–	–	–	–	–	–	–	–	–	–	–	–	–	–	EC50 (Plasmodium falciparum [18]): 608 nM; EC50 (Plasmodium falciparum [21]): 643 nM; EC50 (Plasmodium falciparum [27]): 286 nM
